For 61 compounds, melting point results are on record in a melting point compilation (Tetko et al.; mined from patent text by program, amines drawn as free bases though some values may be those of a salt).

Some results are limits rather than exact numbers.

`FC(F)(F)c1ccc2nccc(N3CCN(C(=S)NCc4ccccc4)CC3)c2c1`: the melting point – broadly, the temperature, or range, at which the solid turns liquid – lay within 158 to 159 °C.
Then `CCC(=O)C1C(=O)CC(c2ccc(C3CC(=O)C(C(=O)CC)C(=O)C3)cc2)CC1=O` (stereo unspecified), with 261 °C; and `CN(c1cccc2cc(-c3ncc(CCl)s3)[nH]c12)S(=O)(=O)c1cccs1`, with 204 to 205 °C.
The compound `C[C@H]1CCCC(C)(C)[C@@H]1[C@H](O)c1ccc(Cl)c(Cl)c1` yielded a melting point of 94.2 to 96.2 °C.
Regarding `C[C@@H]1[C@H](c2ccccc2)[C@]1(NS(=O)(=O)c1ccc(-c2cc(C(C)(F)F)on2)s1)C(=O)O`, the melting point was in the range of 177 to 178 °C.
For `O=C(Nc1cn(C2CCCCO2)nc1C(=O)NCC(O)Cc1ccccc1)c1ccccn1` (stereo unspecified), the melting point was in the range of 132 to 134 °C.
The compound `CCCn1cc(Cc2ccc(C(=O)O)cc2OC)c2cc(CCNC(=O)N3CCOCC3)ccc21` came in with a melting point of 105 to 113 °C.
`COCc1cc(C)nc2nc(S(=O)(=O)Nc3c(C)cccc3Cl)nn12` registered a melting point of 227 °C.
For `CC(=O)OCc1cn(C(c2ccccc2)(c2ccccc2)c2ccccc2)cn1`, the melting point is 133 to 134 °C.
As to `Cc1c(NC(=O)c2cc3c(s2)C2CCC3C2)cccc1-c1cn(C)c(=O)c(Nc2ccc(C3C(=O)N(C)CCN3C)cc2)n1` (stereo unspecified), the melting point is 178 to 179 °C.
In the case of `CC(C)(C)c1cc(CCc2ccccc2NC(=O)NC23CC4CC(CC(C4)C2)C3)cc(C(C)(C)C)c1O`, the melting point lay within 197 to 199 °C.
In turn, `CCCc1ccc2nc(C#N)c(S(N)(=O)=O)n2n1` gave a melting point of 237 to 244 °C.
For `O=C(O)Cc1ccc(CCNS(=O)(=O)c2ccc(F)cc2)cc1`, the melting point was in the range of 192 to 193 °C.
`Cc1cc(OCc2coc(/C=C/c3ccc(Cl)cc3)n2)ccc1CS(=O)CCc1ccnn1C` (stereo unspecified) gave a melting point of 169 to 171 °C.
Compound `Cc1cc(C(C)N(O)C(=O)NCCO)c(C)s1` (stereo unspecified) had a melting point of 122 to 124 °C.
With `Cc1ccc(S(=O)(=O)OCCC2C3=C(CC=CC3)CCc3ccccc32)cc1` (stereo unspecified) the figure was 150 to 151 °C; with `CN1C(=O)CC[C@]2(C)c3ccc(-c4cccc(NC(c5ccccc5)c5ccccc5)c4)cc3CC[C@@H]12`, 109 to 111 °C; with `O=S(=O)(CC(F)(F)F)Nc1cccc2c1CCCC2c1c[nH]cn1` (single isomer, unassigned; (+)), more than 260 °C.
In turn, `CCCCN1C(=O)c2c(ncn2C)N2CCN=C12` gave a melting point of 122 to 124 °C.
`O=C(NCC12CC3CC(CC(C3)C1)C2)c1cc(-c2cc(F)ccc2C(=O)O)ccc1Cl`: the melting point lay within 120 to 124 °C.
Then `CN(CCCC(=O)O)c1ccc(C(=O)c2ccccc2)cc1`, with 111 to 113 °C; and `Cc1nc2n(c(=O)c1CCCl)CCCC2OCc1ccccc1` (stereo unspecified), with 140 to 141 °C; and `CCCc1c(OCCCCCc2ccccc2CCC(=O)O)ccc2c1OCCC2=O`, with 94 to 96 °C.
Compound `CC(C)(C)c1cc(CCc2ccccc2NC(=O)NC2CCN(Cc3cc(F)cc(F)c3)CC2)cc(C(C)(C)C)c1O` yielded a melting point of 119 to 120 °C.
For the compound `Nc1n[nH]cc1-c1cccc(N2CCC(N3CCCC3)CC2)c1`, the melting point is 214 to 216 °C.
Then `Cn1nc(-c2cc([N+](=O)[O-])c(Cl)cc2Cl)cc1OC(F)F`, with 134 to 137 °C.
For the compound `CC(=O)Nc1ccc(CC2CCN(CCS(=O)c3ccc4[nH]c(=O)oc4c3)CC2)cc1` (stereo unspecified), the melting point lay in the range of 104 to 105 °C.
With `O=C(NS(=O)(=O)C(F)(F)F)c1cccc([N+](=O)[O-])c1` the figure was 80 to 83 °C; with `CNC(=O)Nc1snc(N2CCCC2)c1C#N`, 239 °C; with `NCCCCCCCCCCCCCCCCCCCC(=O)O`, 172 to 174 °C.
On to `COc1cc(C=CC(=O)Nc2c(CCO)nc3c(C)cc(C)cc3c2-c2ccccc2Cl)ccc1O`, for which the melting point fell in the range of 133 to 134 °C.
In turn, `CCOC(=O)C1Oc2ccc(Cl)c(Cl)c2O1` (stereo unspecified) showed a melting point of 58 to 61 °C.
`CCCCn1c(=O)[nH]c2cc(Cl)cc(Cl)c2c1=O` showed a melting point of 198 to 201 °C.
For the compound `SCc1cn2ccccc2n1`, the melting point was in the range of 168 to 178 °C.
In the case of `COc1ccc(C(=O)O)c([N+](=O)[O-])c1OC`, the melting point lay within 200 to 202 °C.
`CN1CC=C(c2c[nH]c3ccc([N+](=O)[O-])cc23)C(F)C1` (stereo unspecified) yielded a melting point of 94 to 96 °C.
Turning to `Cc1cc(Cn2cnc(Cl)c2CC#N)ccc1OCc1ccccc1`, the melting point lay within 102 to 105 °C.
`N#Cc1cc(-c2ccc(Cl)cc2)c(Br)[nH]1` returned a melting point of 202 to 204 °C.
`CCCCCCCC(=O)NCc1cccc(-c2ccc(C=CC(=O)O)cc2)c1` showed a melting point of 176 °C.
`COCCOc1ccc(O)cc1` displayed a melting point of 97.9 °C.
Compound `CCOCC(COCC)Oc1ccc(/C=C/CO)c(Oc2ncc(C(F)(F)F)cc2Cl)c1` gave a melting point of 52.5 to 54.5 °C.
With `CC(C)c1cn2ccccc2c1S(=O)(=O)c1ccc(OCCCN2CCN(c3ccccc3)CC2)cc1`, the melting point lay within 135 to 136 °C.
With `CCOc1cc(C(=O)NC2CC(C)(C)NC(C)(C)C2)ccc1-c1cc2cc(Cl)c(Cl)cc2[nH]1` the figure was 253 to 255 °C; with `Cc1ccc(S(=O)(=O)OCCCCO[N+](=O)[O-])cc1`, 38 to 40 °C; with `COc1ccc2c(c1)N(c1ccccc1F)C(=O)C2(C)NC(=O)OCc1ccccc1` (stereo unspecified), 149 to 151 °C.
In turn, `C[C@@H](c1ccccc1)N1C[C@@H](C(N)=O)CC1=O` had a melting point of 149 to 150 °C.
On to `COc1ccc(-n2nc3c(cc2=O)CCSc2sccc2-3)cc1`, for which the melting point was 126 to 128 °C.
With `COc1cc(N)ccc1NC(=O)c1ccc(N)cc1` the figure was 160 to 161 °C; with `O=c1cccc2nccncc1-2`, 145 to 147 °C.
As for `CCc1ccc(C2COc3c(C)c(C)c(NC(=O)CC(C)(C)C)c(C)c32)cc1` (stereo unspecified), the melting point fell in the range of 162 to 163 °C.
With `CO[C@@H](Cc1ccc(OCCc2nc(-c3cc(C)cc(C)c3)oc2C)c2ccsc12)C(=O)O` the figure was 184 to 185 °C; with `Cc1cc(-c2sc(N3CCN(Cc4cccc(C(F)(F)F)c4)C3=O)nc2C)n[nH]1`, 163 to 164 °C; with `CP(C)(=O)COC(=O)c1ccccc1Nc1ccnc2c(C(F)(F)F)cccc12`, 176 °C.
`CCOc1ccccc1C1(CC(=O)N2CCN(c3ccncc3)CC2)C(=O)N(S(=O)(=O)c2ccc(OC)cc2OC)c2ccc(Cl)cc21` (stereo unspecified) gave a melting point of 225 °C.
The compound `COc1cc2c(cc1OC)C[C@@H](N1CCN(c3ccccc3OC)CC1)[C@H](O)C2` (relative stereo) registered a melting point of 172 to 174 °C.
Compound `CC(C)Cc1ccc([N+](=O)[O-])cc1C#N` came in with a melting point of 73 °C.
The compound `CCOC(=O)NC(=NCCN(Cc1ccc(Cl)cc1)c1ccccn1)NCCCc1c[nH]cn1` yielded a melting point of 94 to 96 °C.
`CSc1nc(SC)c(NC(=O)CCCCCSc2nc3ccccc3o2)c(SC)n1` displayed a melting point of 149 to 153 °C.
In turn, `CCCCn1ccc(-c2ccc(Oc3cc(C)nc(C)c3)cc2F)c(C#N)c1=O` displayed a melting point of 170 °C.
Then `CNc1ccc(C(=O)OC)c(F)n1`, with 156 to 159 °C; and `Ic1c2n(c3ccc(OC4CC4)cc13)CCC2`, with 104 to 105 °C.
